Results reported in US5384417A, “Heptitols” (priority 1994, dated 1995).

target: T1, β-Galactosidase (Homo sapiens, UniProt P16278); assay: inhibition of human liver β-galactosidase; assay type: biochemical; conditions: 1 mM inhibitor; read-out: % Inhibition of Glycosidase Activity, β-Galactosidase
T1 construct: Human liver glycosidases were assayed; from tissue; host or cells: human liver
T1 sequence (P16278 29-677): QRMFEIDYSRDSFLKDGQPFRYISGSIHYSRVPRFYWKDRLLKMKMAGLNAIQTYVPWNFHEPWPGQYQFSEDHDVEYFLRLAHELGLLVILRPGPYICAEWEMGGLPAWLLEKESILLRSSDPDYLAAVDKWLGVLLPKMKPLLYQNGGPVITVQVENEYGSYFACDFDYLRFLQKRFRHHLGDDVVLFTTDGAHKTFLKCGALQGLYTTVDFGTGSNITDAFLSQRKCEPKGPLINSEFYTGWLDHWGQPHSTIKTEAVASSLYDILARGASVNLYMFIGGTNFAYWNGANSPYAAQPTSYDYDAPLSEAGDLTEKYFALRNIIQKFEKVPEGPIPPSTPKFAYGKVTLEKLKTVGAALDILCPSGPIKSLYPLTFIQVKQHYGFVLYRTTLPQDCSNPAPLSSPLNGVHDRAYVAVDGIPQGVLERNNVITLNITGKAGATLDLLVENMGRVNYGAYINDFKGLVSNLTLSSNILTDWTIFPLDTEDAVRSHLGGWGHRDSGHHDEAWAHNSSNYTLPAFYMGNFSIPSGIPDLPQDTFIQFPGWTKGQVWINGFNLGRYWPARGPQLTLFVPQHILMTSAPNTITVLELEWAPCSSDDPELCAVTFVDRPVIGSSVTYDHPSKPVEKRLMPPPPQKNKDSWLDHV
Description: (§1) Human liver glycosidases were assayed in the absence and presence [1 mM] of each of the potential inhibitors, using the appropriate buffered 4-methylumbelliferyl glycosides as substrates, as previously described.^17 See Table I, below.

SMILES | inhibition at 1000 µM [%]
OC[C@@H](O)[C@H]1NC[C@@H](O)[C@H]1O [DIM (3)] | 76
NC[C@H]1O[C@H]([C@H](O)CO)[C@H](O)[C@@H]1O [Manhepamine (5), 1-amino-2,5-anhydro-1-deoxy-D-glycero-D-talo-heptitol] | 0
OC[C@@H](O)[C@H]1N[C@H](CO)[C@@H](O)[C@H]1O [αHomoDIM (4), 2,5-dideoxy-2,5-imino-D-glycero-D-talo-heptitol] | 35
OC[C@H]1N[C@H](CO)[C@@H](O)C(O)[C@@H]1O (stereo partly shown) [αHomoDMJ (2)] | 0

system: β-Hexosaminidase; assay: inhibition of human liver β-hexosaminidase; assay type: biochemical; conditions: 1 mM
Description: as §1

SMILES | inhibition of β-hexosaminidase (in words)
OC[C@H]1NC[C@@H](O)[C@@H](O)[C@@H]1O [DMJ (1), deoxymannojirimycin] | moderate inhibition of β-hexosaminidase
NC[C@H]1O[C@H]([C@H](O)CO)[C@H](O)[C@@H]1O [Manhepamine (5), 1-amino-2,5-anhydro-1-deoxy-D-glycero-D-talo-heptitol] | weak inhibitory properties towards β-N-acetylhexosaminidase
OC[C@H]1N[C@H](CO)[C@@H](O)C(O)[C@@H]1O (stereo partly shown) [αHomoDMJ (2)] | abolish the moderate inhibition of β-hexosaminidase

same assay, conditions: 1 mM inhibitor

SMILES | % Inhibition of Glycosidase Activity, β-Hexosaminidase [%]
OC[C@@H](O)[C@H]1NC[C@@H](O)[C@H]1O [DIM (3)] | 28
OC[C@H]1NC[C@@H](O)[C@@H](O)[C@@H]1O [DMJ (1), deoxymannojirimycin] | 55
NC[C@H]1O[C@H]([C@H](O)CO)[C@H](O)[C@@H]1O [Manhepamine (5), 1-amino-2,5-anhydro-1-deoxy-D-glycero-D-talo-heptitol] | 46
OC[C@@H](O)[C@H]1N[C@H](CO)[C@@H](O)[C@H]1O [αHomoDIM (4), 2,5-dideoxy-2,5-imino-D-glycero-D-talo-heptitol] | 0
OC[C@H]1N[C@H](CO)[C@@H](O)C(O)[C@@H]1O (stereo partly shown) [αHomoDMJ (2)] | 1

target: T2, β-Mannosidase (Homo sapiens, UniProt O00462); assay: inhibition of human liver β-mannosidase; assay type: biochemical; conditions: 1 mM inhibitor; read-out: % Inhibition of Glycosidase Activity, β-Mannosidase
T2 construct: Human liver glycosidases were assayed; from tissue; host or cells: human liver
T2 sequence (O00462 18-879): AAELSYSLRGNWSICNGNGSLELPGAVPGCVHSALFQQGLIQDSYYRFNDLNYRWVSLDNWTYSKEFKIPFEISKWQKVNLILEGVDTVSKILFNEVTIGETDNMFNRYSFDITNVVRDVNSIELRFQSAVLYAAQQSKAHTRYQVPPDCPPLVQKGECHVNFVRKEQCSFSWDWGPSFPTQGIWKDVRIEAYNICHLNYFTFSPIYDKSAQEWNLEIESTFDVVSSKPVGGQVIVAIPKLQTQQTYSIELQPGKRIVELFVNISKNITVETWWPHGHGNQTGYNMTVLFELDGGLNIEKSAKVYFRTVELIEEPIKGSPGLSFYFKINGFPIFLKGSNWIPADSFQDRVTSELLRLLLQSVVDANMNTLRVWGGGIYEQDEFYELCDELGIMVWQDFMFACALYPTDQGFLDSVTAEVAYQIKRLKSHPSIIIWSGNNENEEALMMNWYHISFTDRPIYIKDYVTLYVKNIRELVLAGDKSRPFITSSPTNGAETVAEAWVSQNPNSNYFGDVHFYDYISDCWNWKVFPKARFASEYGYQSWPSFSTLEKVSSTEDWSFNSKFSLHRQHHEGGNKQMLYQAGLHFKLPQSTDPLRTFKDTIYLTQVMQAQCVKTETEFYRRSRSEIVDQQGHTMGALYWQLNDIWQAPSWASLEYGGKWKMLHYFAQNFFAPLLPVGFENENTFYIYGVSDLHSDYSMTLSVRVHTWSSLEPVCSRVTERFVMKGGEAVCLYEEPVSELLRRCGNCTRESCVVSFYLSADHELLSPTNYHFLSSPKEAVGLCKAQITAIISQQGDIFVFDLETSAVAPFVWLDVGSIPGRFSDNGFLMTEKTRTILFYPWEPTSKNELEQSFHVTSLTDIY
Description: as §1

SMILES | inhibition at 1000 µM [%]
OC[C@@H](O)[C@H]1NC[C@@H](O)[C@H]1O [DIM (3)] | 0
NC[C@H]1O[C@H]([C@H](O)CO)[C@H](O)[C@@H]1O [Manhepamine (5), 1-amino-2,5-anhydro-1-deoxy-D-glycero-D-talo-heptitol] | 3
OC[C@@H](O)[C@H]1N[C@H](CO)[C@@H](O)[C@H]1O [αHomoDIM (4), 2,5-dideoxy-2,5-imino-D-glycero-D-talo-heptitol] | 18
OC[C@H]1N[C@H](CO)[C@@H](O)C(O)[C@@H]1O (stereo partly shown) [αHomoDMJ (2)] | 0

same assay, conditions: read-out: % Inhibition of Glycosidase Activity, β-Mannosidase

SMILES | inhibition at 1000 µM [%]
OC[C@H]1NC[C@@H](O)[C@@H](O)[C@@H]1O [DMJ (1), deoxymannojirimycin] | 0

target: T3, β-Glucuronidase (Homo sapiens, UniProt P08236); assay: inhibition of human liver β-glucuronidase; assay type: biochemical; conditions: 1 mM inhibitor; read-out: % Inhibition of Glycosidase Activity, β-Glucuronidase
T3 construct: Human liver glycosidases were assayed; from tissue; host or cells: human liver
T3 sequence (P08236 23-633 limits assumed): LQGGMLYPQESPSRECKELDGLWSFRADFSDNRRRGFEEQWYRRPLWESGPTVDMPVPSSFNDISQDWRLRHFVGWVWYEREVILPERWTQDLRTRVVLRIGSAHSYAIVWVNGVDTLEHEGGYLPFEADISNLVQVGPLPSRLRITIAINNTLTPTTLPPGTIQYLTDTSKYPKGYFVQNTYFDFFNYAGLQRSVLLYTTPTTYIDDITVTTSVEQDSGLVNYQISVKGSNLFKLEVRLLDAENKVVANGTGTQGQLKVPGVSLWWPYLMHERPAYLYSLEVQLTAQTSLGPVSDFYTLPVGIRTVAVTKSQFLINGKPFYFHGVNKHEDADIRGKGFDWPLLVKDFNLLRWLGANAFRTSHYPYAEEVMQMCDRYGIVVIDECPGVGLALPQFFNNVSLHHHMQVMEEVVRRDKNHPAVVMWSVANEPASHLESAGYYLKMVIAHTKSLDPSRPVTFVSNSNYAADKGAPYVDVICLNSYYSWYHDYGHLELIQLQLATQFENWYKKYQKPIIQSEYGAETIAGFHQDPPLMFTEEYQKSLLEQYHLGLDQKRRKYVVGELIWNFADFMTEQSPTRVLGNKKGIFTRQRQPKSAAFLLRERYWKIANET
Description: as §1

SMILES | inhibition at 1000 µM [%]
OC[C@@H](O)[C@H]1NC[C@@H](O)[C@H]1O [DIM (3)] | 9
NC[C@H]1O[C@H]([C@H](O)CO)[C@H](O)[C@@H]1O [Manhepamine (5), 1-amino-2,5-anhydro-1-deoxy-D-glycero-D-talo-heptitol] | 7
OC[C@@H](O)[C@H]1N[C@H](CO)[C@@H](O)[C@H]1O [αHomoDIM (4), 2,5-dideoxy-2,5-imino-D-glycero-D-talo-heptitol] | 0
OC[C@H]1N[C@H](CO)[C@@H](O)C(O)[C@@H]1O (stereo partly shown) [αHomoDMJ (2)] | 0

same assay, conditions: read-out: % Inhibition of Glycosidase Activity, β-Glucuronidase

SMILES | inhibition at 1000 µM [%]
OC[C@H]1NC[C@@H](O)[C@@H](O)[C@@H]1O [DMJ (1), deoxymannojirimycin] | 53
